Laboratory results: PubChem BioAssay (NCI)
Where “and” joins values, the source holds several entries; their conditions need not be identical. Equal entries are not always repeated.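 Growth conditions: 96-well plates. Treatment: test compound, 48 hours, 5 concentrations. Analysis: linear interpolation between bracketing concentrations; unreached endpoints set to highest concentration. GI50: concentration for 50% inhibition of growth. TGI is the concentration that stops growth completely.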

Assays:
Test in all cases: DTP human tumour cell line panel, 48 h
COLO 205 colon = test system: COLO 205 colon
SF-295 CNS = test system: SF-295 CNS
HOP-92 NSCLC = test system: HOP-92 NSCLC
CCRF-CEM leukemia = test system: CCRF-CEM leukemia
HCC-2998 colon = test system: HCC-2998 colon
OVCAR-5 ovarian = test system: OVCAR-5 ovarian
SF-539 CNS = test system: SF-539 CNS
NCI-H23 lung = test system: NCI-H23 lung
EKVX NSCLC = test system: EKVX NSCLC
UACC-257 melanoma = test system: UACC-257 melanoma

SMILES	GI50 (COLO 205 colon)	TGI (COLO 205 colon)	GI50 (SF-295 CNS)	TGI (SF-295 CNS)	GI50 (HOP-92 NSCLC)	TGI (HOP-92 NSCLC)	GI50 (CCRF-CEM leukemia)	TGI (CCRF-CEM leukemia)	GI50 (HCC-2998 colon)	GI50 (OVCAR-5 ovarian)	TGI (OVCAR-5 ovarian)	GI50 (SF-539 CNS)	TGI (SF-539 CNS)	GI50 (NCI-H23 lung)	TGI (NCI-H23 lung)	GI50 (EKVX NSCLC)	TGI (EKVX NSCLC)	TGI (UACC-257 melanoma)	TGI (HCC-2998 colon)	GI50 (UACC-257 melanoma)
Nc1cc(-c2cccc(OC(F)(F)F)c2)nc2ccc(N3CCCC3)cc12	0.041 µM and 0.0391 µM and 0.0357 µM	1.42 µM and 2.61 µM	0.0584 µM and 0.0473 µM and 0.0448 µM	5.61 µM and 18.9 µM and > 50.5 µM	0.0888 µM and 0.184 µM and 0.0868 µM	18.2 µM and > 100 µM and 74.2 µM	0.0381 µM and 0.0302 µM and 0.0259 µM	11.6 µM and > 52.5 µM and > 49.6 µM	0.037 µM and 0.0351 µM and 0.0371 µM	0.113 µM and 0.0843 µM and 0.0687 µM	99.2 µM and > 100 µM	0.0358 µM and 0.0372 µM and 0.0354 µM	1.24 µM and 1.54 µM and 1.42 µM	0.0716 µM and 0.0803 µM and 0.0609 µM	43.1 µM and > 100 µM	0.222 µM and 0.362 µM and 0.38 µM	> 100 µM	–	–	–
O=C1NC(=S)NC(=O)C1=Cc1cccc2cc3ccccc3cc12	–	3.7 µM	–	7.19 µM	–	3.76 µM	–	–	–	–	5.21 µM	–	3.1 µM	–	4.62 µM	–	8.9 µM	3.37 µM	3.89 µM	–
O=C1NC2CCC(C2)C1c1ccccc1 (stereo not given)	–	> 100 µM	–	> 100 µM	–	–	–	> 100 µM	–	–	> 100 µM	–	> 100 µM	–	> 100 µM	–	> 100 µM	–	> 100 µM	–
COC1OC(C)C(O)CC1OS(=O)(=O)c1ccc(C)cc1 (stereo not given)	–	> 100 µM	–	> 100 µM	–	> 100 µM	–	> 100 µM	–	–	> 100 µM	–	> 100 µM	–	> 100 µM	–	> 100 µM	> 100 µM	–	–
CC(=O)N/C(=C\c1cccc([N+](=O)[O-])c1)c1nc2c3c(ccc2[nH]1)C(=O)c1ccccc1C3=O	–	> 100 µM	–	> 100 µM	–	> 100 µM	–	> 100 µM	–	–	> 100 µM	–	> 100 µM	–	> 100 µM	–	> 100 µM	–	> 100 µM	–
COC(=O)C(=O)C(C#N)c1ccc(CC#N)cc1 (stereo not given)	–	–	–	> 100 µM	–	> 100 µM	–	> 100 µM	–	–	–	–	> 100 µM	–	> 100 µM	–	> 100 µM	> 100 µM	–	–
CC/C(=C(/CC)c1ccc(O)cc1)c1ccc([O-])cc1.CC/C(=C(/CC)c1ccc(O)cc1)c1ccc([O-])cc1.O=C([CH-]C(=O)c1ccccc1)c1ccccc1.O=C([CH-]C(=O)c1ccccc1)c1ccccc1.[Ti+4]	33.8 µM	> 100 µM	17.9 µM	35 µM	14.2 µM	27.2 µM	4.57 µM	> 100 µM	12.2 µM	23.9 µM	46.7 µM	–	–	–	–	17.6 µM	46 µM	35.9 µM	24.6 µM	15.1 µM
Cc1cc(C)nc(NS(=O)(=O)c2ccc(Nc3c4ccc(Cl)cc4nc4c(C(=O)Nc5ccc(S(=O)(=O)N=C(N)N)cc5)cccc34)cc2)n1	–	–	–	> 100 µM	–	–	–	> 100 µM	–	–	> 100 µM	–	> 100 µM	–	> 100 µM	–	> 100 µM	> 100 µM	> 100 µM	–
O=c1[nH]c2c3ccccc3ccc2c2cc3c(cc12)OCO3	–	> 100 µM	–	> 100 µM	–	–	–	> 100 µM	–	–	> 100 µM	–	> 100 µM	–	> 100 µM	–	> 100 µM	> 100 µM	> 100 µM	–
O=C(O)CC12C3C4C5C3C1C5C42 (stereo not given)	–	> 100 µM	–	> 100 µM	–	–	–	> 100 µM	–	–	> 100 µM	–	> 100 µM	–	> 100 µM	–	> 100 µM	> 100 µM	> 100 µM	–
CCCCc1ccc(-n2c3nc(=O)n(C)c(=O)c-3nc3ccccc32)cc1	–	13 µM	–	23.1 µM	–	–	–	41.6 µM	–	–	32 µM	–	27.1 µM	–	8.19 µM	–	15.5 µM	14.5 µM	16.3 µM	–
C=CCN(CC=C)C(=O)c1cc(C)nc2c1c(=O)n(-c1ccccc1)c(=O)n2CC(O)CN1CCN(c2ncccn2)CC1 (stereo not given)	> 100 µM	> 100 µM	> 100 µM	> 100 µM	> 100 µM	> 100 µM	> 100 µM	> 100 µM	> 100 µM	> 100 µM	> 100 µM	> 100 µM	> 100 µM	> 100 µM	> 100 µM	> 100 µM	> 100 µM	–	> 100 µM	–
CC(C)CNc1nc(-c2ccccc2)nc2ccccc12	14.8 µM	40.3 µM	14.5 µM	28.9 µM	12.3 µM	28.6 µM	15.3 µM	36.6 µM	15.9 µM	17.4 µM	32.2 µM	–	–	17 µM	34.5 µM	–	–	–	29.8 µM	–
COc1cc2cc(C(=O)Nc3cc(N)c4ccccc4c3CCCl)[nH]c2c(OC)c1OC	0.0694 µM	0.254 µM	0.016 µM	> 16.5 µM	0.167 µM	11.8 µM	< 0.005 µM	0.188 µM	0.00922 µM	0.0533 µM	2.13 µM	0.161 µM	> 50 µM	0.0166 µM	0.264 µM	0.0993 µM	0.517 µM	–	0.034 µM	–
Cc1ccc(-c2nc(N)nc3c2nnn3Cc2cccc(CO[C@H]3CCOC3)n2)o1	–	–	> 100 µM	> 100 µM	> 100 µM	> 100 µM	> 100 µM	> 100 µM	> 100 µM	> 100 µM	> 100 µM	> 100 µM	> 100 µM	> 100 µM	> 100 µM	> 100 µM	> 100 µM	> 100 µM	> 100 µM	> 100 µM
Cc1ccc(NC(=O)CCC/C(CC(=O)c2ccc(Br)cc2)=N/NC(=O)CC#N)cc1	–	> 100 µM	–	> 100 µM	–	> 100 µM	–	> 100 µM	–	–	> 100 µM	–	–	–	> 100 µM	–	> 100 µM	> 100 µM	> 100 µM	–
Cc1cc(N2CCN(c3ccnc4cc(Cl)ccc34)CC2)nc(NC2CCCCC2)n1	1.65 µM	3.34 µM	1.72 µM	3.49 µM	1.08 µM	3.04 µM	2.71 µM	10.1 µM	2 µM	–	–	–	–	3.04 µM	8.37 µM	–	–	3.92 µM	3.84 µM	1.86 µM
CC(C)C1CCC/C=C/C=C/C=C/C=C/C(OC2OC(C)C(O)C(N)C2O)CC2OC(O)(CC(O)CC(O)C(O)CCC(=O)O1)CC(O)C2C(=O)O (stereo not given)	–	> 52.5 µM	–	> 52.5 µM	–	> 52.5 µM	–	> 52.5 µM	–	–	–	–	> 52.5 µM	–	–	–	–	–	–	–
COc1ccc2cc3[n+](cc2c1OC)CCc1cc(O)c(O)cc1-3	–	> 100 µM	–	> 100 µM	–	> 100 µM	–	> 100 µM	–	–	> 100 µM	–	> 100 µM	–	> 100 µM	–	> 100 µM	> 100 µM	–	–
